The target of series [1] is T1, MDR1 (ABCB1, P-gp) (Homo sapiens, UniProt P08183). Briefly: Ratio of MC90 EC50 to compound EC50 for MDR1 (unknown origin) by fluorometric analysis. Conditions: not told, read-out: Ratio EC50.
The target of series [2] is T1, MDR1 (ABCB1, P-gp). Nature of the series: Activity at MDR1 (unknown origin) expressed in MDCK cells assessed as ATPase activity at 50 uM after 2 hrs by ATPlite assay. To be noted: MDCK cells expressing MDR1, read-out: Activity. The series is classed as cell-based.
Series [3] can be described thus: Efflux ratio of apparent permeability from basolateral to apical to apical to basolateral side of human Caco2 cells after 120 mins. Conditions: Caco-2. It counts as ADME, cell-based. In general terms: Caco-2 cells form a polarised layer with tight junctions and transporters.
Series [4] addresses Multidrug resistance-associated protein 1 (Homo sapiens, UniProt P33527). Briefly: Activity at MRP1 (unknown origin) expressed in MDCK cells using calcein AM as substrate incubated for 30 mins prior to substrate addition measured after 30 mins by fluorometric analysis. The series is classed as cell-based.
The target of series [5] is T2, Broad substrate specificity ATP-binding cassette transporter ABCG2 (Homo sapiens, UniProt Q9UNQ0).
T2 sequence (Q9UNQ0 whole entry): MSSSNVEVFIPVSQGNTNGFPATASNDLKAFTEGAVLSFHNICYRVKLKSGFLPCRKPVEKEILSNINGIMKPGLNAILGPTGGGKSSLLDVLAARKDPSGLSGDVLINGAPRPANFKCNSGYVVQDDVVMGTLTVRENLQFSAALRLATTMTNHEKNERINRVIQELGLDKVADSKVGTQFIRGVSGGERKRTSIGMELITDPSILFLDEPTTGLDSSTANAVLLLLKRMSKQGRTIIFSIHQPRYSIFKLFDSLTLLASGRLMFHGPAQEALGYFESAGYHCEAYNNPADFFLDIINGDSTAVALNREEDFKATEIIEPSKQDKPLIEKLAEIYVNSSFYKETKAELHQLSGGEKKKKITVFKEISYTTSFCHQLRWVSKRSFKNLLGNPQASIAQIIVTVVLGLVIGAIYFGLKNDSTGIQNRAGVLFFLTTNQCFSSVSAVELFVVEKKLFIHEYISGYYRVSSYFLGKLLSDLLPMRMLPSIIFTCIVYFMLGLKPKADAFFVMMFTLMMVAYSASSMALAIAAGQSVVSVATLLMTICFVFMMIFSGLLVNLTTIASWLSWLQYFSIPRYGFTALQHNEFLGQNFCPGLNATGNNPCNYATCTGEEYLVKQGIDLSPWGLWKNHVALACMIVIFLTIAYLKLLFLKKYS
Briefly: Activity at BCRP (unknown origin) expressed in MDCK cells using […] as substrate incubated for 30 mins prior to substrate addition measured after 30 mins by fluorometric analysis. It counts as cell-based.

Series [6] deals with ATP-dependent translocase ABCB1 (Homo sapiens, UniProt P08183). Nature of the series: Activity at MDR1 (unknown origin) expressed in MDCK cells using calcein AM as substrate incubated for 30 mins prior to substrate addition measured after 30 mins by fluorometric analysis. It counts as cell-based.
Chain of ATP-dependent translocase ABCB1 (P08183 whole entry): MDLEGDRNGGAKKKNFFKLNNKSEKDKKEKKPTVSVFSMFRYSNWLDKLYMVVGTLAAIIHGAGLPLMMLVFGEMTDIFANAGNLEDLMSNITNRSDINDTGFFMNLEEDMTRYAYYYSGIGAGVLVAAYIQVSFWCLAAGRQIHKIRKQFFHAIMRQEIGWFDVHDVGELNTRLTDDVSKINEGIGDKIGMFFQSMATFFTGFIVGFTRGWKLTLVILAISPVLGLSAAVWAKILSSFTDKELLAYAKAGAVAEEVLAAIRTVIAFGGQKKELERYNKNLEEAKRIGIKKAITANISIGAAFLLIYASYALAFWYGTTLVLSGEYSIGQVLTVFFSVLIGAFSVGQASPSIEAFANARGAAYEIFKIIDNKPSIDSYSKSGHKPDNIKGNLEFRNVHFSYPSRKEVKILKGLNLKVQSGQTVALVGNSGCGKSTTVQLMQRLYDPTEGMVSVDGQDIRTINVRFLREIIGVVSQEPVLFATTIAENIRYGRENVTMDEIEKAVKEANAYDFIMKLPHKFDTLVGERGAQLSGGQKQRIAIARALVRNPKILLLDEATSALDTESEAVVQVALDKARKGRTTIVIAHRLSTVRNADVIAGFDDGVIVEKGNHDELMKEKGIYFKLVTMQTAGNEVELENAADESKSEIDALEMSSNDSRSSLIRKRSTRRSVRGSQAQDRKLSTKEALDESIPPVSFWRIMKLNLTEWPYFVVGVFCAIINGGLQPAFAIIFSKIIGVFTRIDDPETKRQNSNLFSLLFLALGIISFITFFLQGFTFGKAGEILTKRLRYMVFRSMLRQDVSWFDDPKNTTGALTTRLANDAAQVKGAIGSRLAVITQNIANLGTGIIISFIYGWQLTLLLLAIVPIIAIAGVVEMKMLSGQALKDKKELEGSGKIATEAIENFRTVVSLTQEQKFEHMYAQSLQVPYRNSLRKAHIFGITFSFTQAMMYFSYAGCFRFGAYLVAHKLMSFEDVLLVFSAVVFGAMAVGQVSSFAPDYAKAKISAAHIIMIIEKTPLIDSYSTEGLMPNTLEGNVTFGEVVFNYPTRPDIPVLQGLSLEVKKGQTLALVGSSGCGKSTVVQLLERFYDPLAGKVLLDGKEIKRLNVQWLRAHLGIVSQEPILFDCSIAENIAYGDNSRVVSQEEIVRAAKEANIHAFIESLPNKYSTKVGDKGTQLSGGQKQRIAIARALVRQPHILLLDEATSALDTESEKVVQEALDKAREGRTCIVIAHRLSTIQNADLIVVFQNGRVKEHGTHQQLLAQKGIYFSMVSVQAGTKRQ

The text below walks through data of ChEMBL document CHEMBL2331297, “Potent and selective tariquidar bioisosters as potential PET radiotracers for imaging P-gp” (Bioorg Med Chem Lett, 2013).

The structures appear in SMILES notation.

T1 sequence (P08183 whole entry): as above
Chain of Multidrug resistance-associated protein 1 (P33527 whole entry): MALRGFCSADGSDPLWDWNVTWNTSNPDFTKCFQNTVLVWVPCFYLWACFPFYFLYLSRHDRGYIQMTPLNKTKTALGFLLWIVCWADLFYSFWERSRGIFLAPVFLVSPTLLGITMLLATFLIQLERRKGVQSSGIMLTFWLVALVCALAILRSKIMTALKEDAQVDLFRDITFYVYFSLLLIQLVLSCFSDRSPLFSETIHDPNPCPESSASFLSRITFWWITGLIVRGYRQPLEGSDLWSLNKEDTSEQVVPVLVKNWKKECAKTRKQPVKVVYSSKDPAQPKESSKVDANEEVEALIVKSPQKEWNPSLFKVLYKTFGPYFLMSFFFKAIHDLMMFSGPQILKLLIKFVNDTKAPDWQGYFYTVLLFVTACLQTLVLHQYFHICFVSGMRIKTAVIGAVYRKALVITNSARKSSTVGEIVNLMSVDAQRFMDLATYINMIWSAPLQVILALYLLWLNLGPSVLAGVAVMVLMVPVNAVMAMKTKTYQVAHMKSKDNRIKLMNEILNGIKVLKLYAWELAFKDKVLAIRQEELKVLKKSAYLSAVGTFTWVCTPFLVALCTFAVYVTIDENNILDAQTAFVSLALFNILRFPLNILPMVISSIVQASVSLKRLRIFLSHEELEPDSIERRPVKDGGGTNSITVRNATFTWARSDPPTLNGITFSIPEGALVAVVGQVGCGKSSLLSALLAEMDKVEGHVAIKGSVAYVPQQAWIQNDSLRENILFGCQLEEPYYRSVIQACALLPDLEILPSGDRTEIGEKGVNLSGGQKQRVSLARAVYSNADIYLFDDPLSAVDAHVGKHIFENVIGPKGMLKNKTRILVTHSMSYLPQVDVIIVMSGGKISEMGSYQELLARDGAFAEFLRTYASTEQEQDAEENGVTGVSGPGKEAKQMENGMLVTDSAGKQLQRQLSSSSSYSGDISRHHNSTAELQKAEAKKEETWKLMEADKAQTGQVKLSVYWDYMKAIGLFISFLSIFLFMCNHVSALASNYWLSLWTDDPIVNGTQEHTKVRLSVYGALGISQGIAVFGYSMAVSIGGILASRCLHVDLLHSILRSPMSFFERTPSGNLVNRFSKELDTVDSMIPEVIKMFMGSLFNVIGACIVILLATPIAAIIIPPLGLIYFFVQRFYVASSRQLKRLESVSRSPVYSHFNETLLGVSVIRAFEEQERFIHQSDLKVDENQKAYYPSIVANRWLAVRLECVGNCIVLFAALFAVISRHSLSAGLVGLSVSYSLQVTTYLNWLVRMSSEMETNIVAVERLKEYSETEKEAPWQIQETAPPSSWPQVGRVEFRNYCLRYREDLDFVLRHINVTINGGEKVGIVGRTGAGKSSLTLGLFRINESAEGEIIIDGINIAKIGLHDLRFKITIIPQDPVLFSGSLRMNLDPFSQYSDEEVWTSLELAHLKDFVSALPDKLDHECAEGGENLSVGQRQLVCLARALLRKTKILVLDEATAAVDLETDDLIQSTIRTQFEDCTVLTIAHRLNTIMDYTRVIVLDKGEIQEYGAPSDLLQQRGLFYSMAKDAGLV

Turning to `COc1cc2c(cc1OC)CN(Cc1ccc(Oc3ccc(-c4nc(-c5ccc(F)cc5)cs4)cn3)cc1)CC2`, in series [1], the selectivity ratio was 10. In series [2], the activity at 2 h, 50 µM was determined as 18%. In addition, the efflux ratio (usually a quotient of directional permeabilities that is used to spot active efflux) at 2 h in series [3] came to 4.5. In addition, the figures for the EC50 in series [4], in series [5] and in series [6] were above 100 µM, 1 µM and 0.41 µM, respectively.
As for `COc1ccc(-c2nc(CN3CCc4cc(OC)c(OC)cc4C3)cs2)cc1`, in series [3], the efflux ratio at 2 h worked out at 6.1. The EC50 (commonly the concentration that produces a half-maximal response) was 2.7 µM in series [4], 30 µM in series [5] and 1.94 µM in series [6].
Consider `COc1cc2c(cc1OC)CN(Cc1ccc(Oc3ccc(C(N)=O)cn3)cc1)CC2`, for which the values for the EC50 in series [4] and in series [6] were above 100 µM and 19 µM, respectively.
Taken in the same sequence, the figures for `COc1cc2c(cc1OC)CN(Cc1ccc(Oc3ccc(C(N)=S)cn3)cc1)CC2` were above 100 µM and 11 µM.
Regarding `COc1cccc(-c2csc(-c3ccc(Oc4ccc(CN5CCc6cc(OC)c(OC)cc6C5)cc4)nc3)n2)c1`, in series [1], the selectivity ratio stood at 10. For the same molecule, the activity at 2 h, 50 µM in series [2] was found to be 20%. In addition, the efflux ratio at 2 h in series [3] is 2.5. The EC50 in series [4] was above 100 µM; in series [5], 0.5 µM; in series [6], 0.95 µM.
As to `COc1cc2c(cc1OC)CN(Cc1ccc(Oc3ccc(-c4nc(-c5cccc(O)c5)cs4)cn3)cc1)CC2`, the selectivity ratio in series [1] came out at 10. Further, the activity at 2 h, 50 µM in series [2] was 20%. For the same molecule, the efflux ratio at 2 h in series [3] came out at 0.9. Further, the results for the EC50 in series [4], in series [5] and in series [6] were above 100 µM, 0.018 µM and 0.25 µM, respectively.
Turning to `COc1cc2c(cc1OC)CN(Cc1ccc(Oc3ccc(-c4nc(-c5ccc([N+](=O)[O-])cc5)cs4)cn3)cc1)CC2`, the selectivity ratio in series [1] is 10. Moreover, the activity at 2 h, 50 µM in series [2] amounted to 16%. Moreover, in series [3], the efflux ratio at 2 h amounted to 2.7. In addition, the EC50 in series [4] was above 100 µM; in series [5], 10 µM; in series [6], 0.51 µM.
For the molecule `COc1ccc(-c2ccc(CN3CCc4cc(OC)c(OC)cc4C3)cc2)cc1`, the efflux ratio at 2 h in series [3] came out at 2.6. The EC50 was 21 µM in series [4], 15 µM in series [5] and 0.6 µM in series [6].
In the case of `COc1cc2c(cc1OC)CN(CC/C=C1\CCCc3c(OC)cccc31)CC2`, the efflux ratio at 2 h in series [3] was found to be 1.64. For the same molecule, the midpoint of the response in series [5], the EC50, lay at 90 µM.
Regarding `COc1cc2c(cc1OC)CN(CCc1ccc(NC(=O)c3cc(OC)c(OC)cc3NC(=O)c3cnc4ccccc4c3)cc1)CC2` [TARIQUIDAR], the activity at 2 h, 50 µM in series [2] is 30%. The efflux ratio at 2 h in series [3] is 22.
